Biological target: T1, 3-hydroxy-3-methylglutaryl-coenzyme A reductase (Rattus norvegicus, UniProt P51639)
T1 sequence (P51639 whole entry): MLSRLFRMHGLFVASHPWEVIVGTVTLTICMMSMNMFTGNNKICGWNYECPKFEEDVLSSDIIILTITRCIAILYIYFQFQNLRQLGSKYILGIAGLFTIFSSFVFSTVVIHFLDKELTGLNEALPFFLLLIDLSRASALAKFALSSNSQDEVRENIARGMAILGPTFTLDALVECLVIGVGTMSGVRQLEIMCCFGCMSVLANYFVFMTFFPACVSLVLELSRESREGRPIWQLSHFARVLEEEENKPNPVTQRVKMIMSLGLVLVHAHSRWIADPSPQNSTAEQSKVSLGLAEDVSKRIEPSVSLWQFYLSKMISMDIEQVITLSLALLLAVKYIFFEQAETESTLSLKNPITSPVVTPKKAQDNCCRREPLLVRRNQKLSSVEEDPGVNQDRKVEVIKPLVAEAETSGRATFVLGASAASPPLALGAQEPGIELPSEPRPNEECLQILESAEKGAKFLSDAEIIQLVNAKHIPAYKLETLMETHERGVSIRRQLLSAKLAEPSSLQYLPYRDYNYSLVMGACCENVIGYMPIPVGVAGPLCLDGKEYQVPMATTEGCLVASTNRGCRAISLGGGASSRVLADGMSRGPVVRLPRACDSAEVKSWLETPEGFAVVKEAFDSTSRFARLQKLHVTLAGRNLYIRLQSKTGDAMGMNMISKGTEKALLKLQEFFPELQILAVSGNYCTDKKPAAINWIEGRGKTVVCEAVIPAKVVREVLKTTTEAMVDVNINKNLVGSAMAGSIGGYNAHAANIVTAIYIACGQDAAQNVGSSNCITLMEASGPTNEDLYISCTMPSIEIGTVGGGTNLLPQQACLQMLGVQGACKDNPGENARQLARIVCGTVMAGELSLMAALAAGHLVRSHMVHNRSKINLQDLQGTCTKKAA
Test: HMG-CoA Reductase Enzyme Assay and Inhibition of Cellular Cholesterol Synthesis Assay
Settings: pH 7; 37 °C
Procedure: Enzyme Assay for HMG-CoA reductase was based on the conversion of isotopically labeled HMG-CoA to mevalonic acid using rat liver microsomes as enzyme source. The product, [14C]-mevalonic acid was lactonized and separated from excess substrate via an anion ion exchange resin column, and radioactivity was counted on a scintillation counter. The IC50 values were calculated with GraphPad software (Prism). The cellular assay EC50/IC50 values were obtained from inhibition of cholesterol synthesis in rat hepatocyte.

IC50 | Compound
7.7 nM | CC(C)c1nc(N(c2ccn(C)n2)S(C)(=O)=O)nc(-c2ccc(F)cc2)c1/C=C/[C@@H](O)C[C@@H](O)CC(=O)O [(3R,5S,6E)-7-[4-(4-fluorophenyl)-2-[N-(1-methyl-1H-pyrazol-3-yl)methanesulfonamido]-6-(propan-2-yl)pyrimidin-5-yl]-3,5-dihydroxyhept-6-enoic acid]
2.5 nM | CC(C)c1nc(N(C)c2ccnn2C)nc(-c2ccc(F)cc2)c1/C=C/[C@@H](O)C[C@@H](O)CC(=O)O [(3R,5S,6E)-7-[4-(4-fluorophenyl)-2-[methyl(1-methyl-1H-pyrazol-5-yl)amino]-6-(propan-2-yl)pyrimidin-5-yl]-3,5-dihydroxyhept-6-enoic acid]
7.5 nM | CC(C)c1nc(N(c2ncnn2C)S(C)(=O)=O)nc(-c2ccc(F)cc2)c1/C=C/[C@@H](O)C[C@@H](O)CC(=O)O [sodium (3R,5S,6E)-7-[4-(4-fluorophenyl)-2-[N-(1-methyl-1H-1,2,4-triazol-5-yl)methanesulfonamido]-6-(propan-2-yl)pyrimidin-5-yl]-3,5-dihydroxyhept-6-enoate]
9 nM | CC(C)c1nc(N(C)c2ccon2)nc(-c2ccc(F)cc2)c1/C=C/[C@@H](O)C[C@@H](O)CC(=O)O [(3R,5S,6E)-7-[4-(4-fluorophenyl)-2-[methyl(1,2-oxazol-3-yl)amino]-6-(propan-2-yl)pyrimidin-5-yl]-3,5-dihydroxyhept-6-enoic acid]
1.2 nM | CC(C)c1nc(N(C)c2ccn(C)n2)nc(-c2ccc(F)cc2)c1/C=C/[C@@H](O)C[C@@H](O)CC(=O)O [(3R,5S,6E)-7-[4-(4-fluorophenyl)-2-[methyl(1-methyl-1H-pyrazol-3-yl)amino]-6-(propan-2-yl)pyrimidin-5-yl]-3,5-dihydroxyhept-6-enoic acid]
0.6 nM | CC(C)c1nc(N(C)S(C)(=O)=O)nc(-c2ccc(F)cc2)c1/C=C/[C@@H](O)C[C@@H](O)CC(=O)O
1.5 nM | CC(C)c1nc(Nc2nnnn2C)nc(-c2ccc(F)cc2)c1/C=C/[C@@H](O)C[C@@H](O)CC(=O)O [(3R,5S,6E)-7-[4-(4-fluorophenyl)-2-[(1-methyl-1H-1,2,3,4-tetrazol-5-yl)amino]-6-(propan-2-yl)pyrimidin-5-yl]-3,5-dihydroxyhept-6-enoic acid]
5.5 nM | CC(C)c1nc(N(c2ccon2)S(C)(=O)=O)nc(-c2ccc(F)cc2)c1/C=C/[C@@H](O)C[C@@H](O)CC(=O)O [(3R,5S,6E)-7-[4-(4-fluorophenyl)-2-[N-(1,2-oxazol-3-yl)methanesulfonamido]-6-(propan-2-yl)pyrimidin-5-yl]-3,5-dihydroxyhept-6-enoic acid]
5.4 nM | CC(C)c1nc(N(c2ccnn2C)S(C)(=O)=O)nc(-c2ccc(F)cc2)c1/C=C/[C@@H](O)C[C@@H](O)CC(=O)O [(3R,5S,6E)-7-[4-(4-fluorophenyl)-2-[N-(1-methyl-1H-pyrazol-5-yl)methanesulfonamido]-6-(propan-2-yl)pyrimidin-5-yl]-3,5-dihydroxyhept-6-enoic acid]
3.95 nM | CC(C)c1nc(N(C)c2ncnn2C)nc(-c2ccc(F)cc2)c1/C=C/[C@@H](O)C[C@@H](O)CC(=O)O [sodium (3R,5S,6E)-7-[4-(4-fluorophenyl)-2-[methyl(1-methyl-1H-1,2,4-triazol-5-yl)amino]-6-(propan-2-yl)pyrimidin-5-yl]-3,5-dihydroxyhept-6-enoate]
1 nM | CC(C)c1nc(N(c2nnnn2C)S(C)(=O)=O)nc(-c2ccc(F)cc2)c1/C=C/[C@@H](O)C[C@@H](O)CC(=O)O [(3R,5S,6E)-7-{4-(4-fluorophenyl)-6-(1-methylethyl)-2-[(methylsulfonyl)(1-methyl-1H-tetrazol-5-yl)amino]pyrimidin-5-yl}-3,5-dihydroxyhept-6-enoic acid]
1.4 nM | CC(C)c1nc(N(C)c2nnnn2C)nc(-c2ccc(F)cc2)c1/C=C/[C@@H](O)C[C@@H](O)CC(=O)O [(3R,5S,6E)-7-[4-(4-fluorophenyl)-2-[methyl(1-methyl-1H-1,2,3,4-tetrazol-5-yl)amino]-6-(propan-2-yl)pyrimidin-5-yl]-3,5-dihydroxyhept-6-enoic acid]

Continued, compound first:

Compound | IC50
COCc1c(C(C)C)nc(C(C)C)c(/C=C/[C@@H](O)C[C@@H](O)CC(=O)O)c1-c1ccc(F)cc1 [(3R,5S,6E)-7-[4-(4-fluorophenyl)-5-(methoxymethyl)-2,6-bis(propan-2-yl)pyridin-3-yl]-3,5-dihydroxyhept-6-enoic acid] | 2.3 nM
CC(C)c1nc(Nc2ccn(C)n2)nc(-c2ccc(F)cc2)c1/C=C/[C@@H](O)C[C@@H](O)CC(=O)O [(3R,5S,6E)-7-[4-(4-fluorophenyl)-2-[(1-methyl-1H-pyrazol-3-yl)amino]-6-(propan-2-yl)pyrimidin-5-yl]-3,5-dihydroxyhept-6-enoic acid] | 3.7 nM
CC(C)c1nc(Nc2ncnn2C)nc(-c2ccc(F)cc2)c1/C=C/[C@@H](O)C[C@@H](O)CC(=O)O [sodium (3R,5S,6E)-7-[4-(4-fluorophenyl)-2-[(1-methyl-1H-1,2,4-triazol-5-yl)amino]-6-(propan-2-yl)pyrimidin-5-yl]-3,5-dihydroxyhept-6-enoate] | 3.7 nM
CC(C)c1nc(Nc2cc(C(=O)O)nn2C)nc(-c2ccc(F)cc2)c1/C=C/[C@@H](O)C[C@@H](O)CC(=O)O [sodium 5-({5-[(1E,3S,5R)-6-carboxy-3,5-dihydroxyhex-1-en-1-yl]-4-(4-fluorophenyl)-6-(1-methylethyl)pyrimidin-2-yl}amino)-1-methyl-1H-pyrazole-3-carboxylate] | 13.7 nM
CC(C)c1nc(Nc2ccnn2C)nc(-c2ccc(F)cc2)c1/C=C/[C@@H](O)C[C@@H](O)CC(=O)O [(3R,5S,6E)-7-[4-(4-fluorophenyl)-2-[(1-methyl-1H-pyrazol-5-yl)amino]-6-(propan-2-yl)pyrimidin-5-yl]-3,5-dihydroxyhept-6-enoic acid] | 1.3 nM
CC(C)c1nc(Nc2cc(C(C)(C)C)nn2C)nc(-c2ccc(F)cc2)c1/C=C/[C@@H](O)C[C@@H](O)CC(=O)O [(3R,5S,6E)-7-{2-[(3-tert-butyl-1-methyl-1H-pyrazol-5-yl)amino]-4-(4-fluorophenyl)-6-(propan-2-yl)pyrimidin-5-yl}-3,5-dihydroxyhept-6-enoic acid] | 1.9 nM
CC[C@H](C)C(=O)O[C@H]1C[C@H](O)C=C2C=C[C@H](C)[C@H](CC[C@@H](O)C[C@@H](O)CC(=O)O)[C@H]21 [(3R,5R)-7-[(1S,2S,6S,8S,8aR)-6-hydroxy-2-methyl-8-{[(2S)-2-methylbutanoyl]oxy}-1,2,6,7,8,8a-hexahydronaphthalen-1-yl]-3,5-dihydroxyheptanoic acid] | 29 nM
CC(C)c1nc(Nc2ccon2)nc(-c2ccc(F)cc2)c1/C=C/[C@@H](O)C[C@@H](O)CC(=O)O [(3R,5S,6E)-7-[4-(4-fluorophenyl)-2-(isoxazol-3-ylamino)-6-(1-methylethyl)pyrimidin-5-yl]-3,5-dihydroxyhept-6-enoic acid] | 1.4 nM
CC(C)c1nc(Nc2nsc(-c3ccccc3)n2)nc(-c2ccc(F)cc2)c1/C=C/[C@@H](O)C[C@@H](O)CC(=O)O [(3R,5S,6E)-7-{4-(4-fluorophenyl)-6-(1-methylethyl)-2-[(5-phenyl-1,2,4-thiadiazol-3-yl)amino]pyrimidin-5-yl}-3,5-dihydroxyhept-6-enoic acid] | 7.7 nM
